Results published in US7326788B2, “Quinolinone derivatives as inhibitors of c-fms kinase” (Janssen Pharmaceutica N.V., priority 2003, dated 2008).

The compounds below were run against T1, c-fms (Homo sapiens, UniProt P07333) (assay: c-fms autophosphorylation, fluorescence polarization competition immunoassay). Settings: 10 nM c-fms, 1 mM ATP, 5 mM MgCl2, 2% DMSO; averages of three independent measurements.
T1 construct: 3DP
Type: biochemical
Protocol: The assay was performed in black 96-well microplates (LJL BioSystems). The assay buffer used was 100 mM HEPES, pH 7.5, 1 mM DTT, 0.01% (v/v) Tween-20. Compounds were diluted in assay buffer containing 4% DMSO just prior to the assay. […] The kinase reaction was initiated by adding 2 μL of 5 mM ATP (Sigma) in assay buffer. The final concentrations in the assay were 10 nM c-fms, 1 mM ATP, 5 mM MgCl2, 2% DMSO. Control reactions were ran in each plate: in positive and negative control wells, assay buffer (made 4% in DMSO) was substituted for the compound; in addition, positive control wells received 1.2 μL of 50 mM EDTA.
The plates were incubated at room temperature for 45 min. At the end of the incubation, the reaction was quenched with 1.2 μL of 50 mM EDTA (EDTA was not added to the positive control wells at this point; see above). Following a 5-min incubation, each well received 10 μL of a 1:1:3 mixture of anti-phosphotyrosine antibody, 10X, PTK green tracer, 10X (vortexed), FP dilution buffer, respectively (all from PanVera, cat. #P2837). The plate was covered, incubated for 30 min at room temperature and the fluorescence polarization was read on the Analyst. The instrument settings were: 485 nm excitation filter; 530 nm emission filter; Z height: middle of well; G factor: 0.93. […] The reported IC50 values are averages of three independent measurements.

T1 sequence (P07333 20-972): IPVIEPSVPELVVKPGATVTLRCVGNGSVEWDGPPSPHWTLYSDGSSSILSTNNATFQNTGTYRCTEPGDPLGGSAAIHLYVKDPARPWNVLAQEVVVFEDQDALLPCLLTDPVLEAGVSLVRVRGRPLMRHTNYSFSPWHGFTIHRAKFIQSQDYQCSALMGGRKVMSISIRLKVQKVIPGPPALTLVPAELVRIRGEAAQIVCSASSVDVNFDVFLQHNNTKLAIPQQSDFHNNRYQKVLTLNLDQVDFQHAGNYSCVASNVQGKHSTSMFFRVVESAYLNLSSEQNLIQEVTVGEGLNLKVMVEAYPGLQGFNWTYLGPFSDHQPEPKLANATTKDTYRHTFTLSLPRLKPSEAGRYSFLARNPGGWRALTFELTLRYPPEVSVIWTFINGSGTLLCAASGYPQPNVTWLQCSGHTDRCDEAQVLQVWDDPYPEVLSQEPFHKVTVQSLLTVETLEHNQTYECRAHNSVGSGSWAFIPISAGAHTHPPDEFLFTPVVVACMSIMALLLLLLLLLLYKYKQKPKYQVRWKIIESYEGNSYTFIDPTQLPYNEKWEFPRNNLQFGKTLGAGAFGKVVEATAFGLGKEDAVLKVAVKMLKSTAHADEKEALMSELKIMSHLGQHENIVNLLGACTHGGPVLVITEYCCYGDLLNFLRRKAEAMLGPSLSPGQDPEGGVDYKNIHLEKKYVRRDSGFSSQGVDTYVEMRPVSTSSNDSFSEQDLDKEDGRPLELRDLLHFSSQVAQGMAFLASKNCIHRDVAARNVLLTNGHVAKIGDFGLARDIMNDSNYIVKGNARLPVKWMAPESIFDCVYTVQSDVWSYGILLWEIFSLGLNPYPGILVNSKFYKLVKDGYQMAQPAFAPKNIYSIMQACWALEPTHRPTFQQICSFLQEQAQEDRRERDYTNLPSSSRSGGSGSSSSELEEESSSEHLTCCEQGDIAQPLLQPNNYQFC

IC50 [nM] | SMILES
< 500 | Cc1cc(-c2c(-c3ccccc3)c3cc(Br)ccc3[nH]c2=O)on1
< 500 | CCc1ccc(-c2c(-c3cnc[nH]3)c(=O)[nH]c3ccc(C#N)cc23)cc1
< 500 | CCc1ccc(-c2c(-c3cc(C)no3)c(=O)[nH]c3ccc(C#N)cc23)cc1
< 500 | Cc1cc(-c2c(-c3ccc(C(C)C)cc3)c3cc(C#N)ccc3[nH]c2=O)on1
< 500 | C=Cc1ccc(-c2c(-c3cc(C)no3)c(=O)[nH]c3ccc(C#N)cc23)cc1
< 500 | Cc1cc(-c2c(C3=CCCCCC3)c3cc(C#N)ccc3[nH]c2=O)on1
< 500 | CC(C)(C)c1cc(-c2c(-c3ccccc3)c3cc(Cl)ccc3[nH]c2=O)on1
< 500 | Cc1cc(-c2c(-c3cccc(O)c3)c3cc(Cl)ccc3[nH]c2=O)on1
< 500 | Cc1cc(-c2c(-c3ccccc3F)c3cc(Cl)ccc3[nH]c2=O)on1
< 500 | O=C(O)c1cc(-c2c(-c3ccccc3)c3cc(Cl)ccc3[nH]c2=O)on1
< 500 | Cc1cc(-c2c(-c3cccs3)c3cc(Cl)ccc3[nH]c2=O)on1
< 500 | Cc1cc(-c2c(N3CCCCC3)c3cc(Cl)ccc3[nH]c2=O)on1
< 500 | O=c1[nH]c2ccc(Br)cc2c(-c2ccccc2)c1-c1cnc[nH]1
500 to 1000 | Cc1cc(-c2c(-c3cc4ccccc4s3)c3cc(Cl)ccc3[nH]c2=O)on1
500 to 1000 | Cc1cc(-c2c(N3CCC(C)(C)CC3)c3cc(Cl)ccc3[nH]c2=O)on1
500 to 1000 | Cc1cc(-c2c(-c3ccc(OC(F)(F)F)cc3)c3cc(C#N)ccc3[nH]c2=O)on1
500 to 1000 | COc1cccc(-c2c(-c3cc(C)no3)c(=O)[nH]c3ccc(Cl)cc23)c1
1000 to 10000 | O=c1[nH]c2ccc(Cl)cc2c(-c2ccccc2)c1-c1cc(CCc2ccccc2)no1
1000 to 10000 | CC(=O)Nc1cc(-c2c(-c3ccccc3)c3cc(Cl)ccc3[nH]c2=O)on1

IC50 [nM] | SMILES
1000 to 10000 | Cc1cc(-c2c(-c3cccnc3)c3cc(Cl)ccc3[nH]c2=O)on1
1000 to 10000 | Cc1cc(-c2c(-c3ccccn3)c3cc(Cl)ccc3[nH]c2=O)on1
1000 to 10000 | Cc1cc(-c2c(-c3cc4ccccc4o3)c3cc(Cl)ccc3[nH]c2=O)on1
1000 to 10000 | Cc1cc(-c2c(-c3ccc4ccccc4c3)c3cc(Cl)ccc3[nH]c2=O)on1
1000 to 10000 | O=c1[nH]c2ccc(Cl)cc2c(-c2ccccc2)c1-c1cncc(Br)c1
1000 to 10000 | O=c1[nH]c2ccc(Cl)cc2c(-c2ccccc2)c1-c1ccccn1
1000 to 10000 | O=c1[nH]c2ccc(Cl)cc2c(-c2ccccc2)c1-c1nc2ccccc2[nH]1
1000 to 10000 | O=c1[nH]c2ccc(Cl)cc2c(-c2ccccc2)c1-c1cccnc1
1000 to 10000 | Cc1cc(-c2c(-c3ccccc3)c3cc(O)ccc3[nH]c2=O)on1
> 10000 | Cc1cc(-c2c(-c3ccccc3)c3cc(C(O)CO)ccc3[nH]c2=O)on1 (stereo not shown)
> 10000 | Cc1cc(-c2c(-c3ccccc3)c3ccc(Cl)cc3[nH]c2=O)on1
> 10000 | CCOC(=O)c1cccc(-c2c(-c3ccccc3)c3cc(Cl)ccc3[nH]c2=O)c1
> 10000 | Cc1cc(-c2c(-c3ccccc3)c3cccc(Cl)c3[nH]c2=O)on1
> 10000 | O=c1[nH]c2ccc(Cl)cc2c(-c2ccccc2)c1-c1nnn[nH]1
> 10000 | Cc1cc(-c2c(-c3ccccc3)c3cc(CO)ccc3[nH]c2=O)on1
1000 to 10000 | Cc1cc(-c2c(-c3ccccc3)c3cc(C(=O)O)ccc3[nH]c2=O)on1
500 to 1000 | O=c1[nH]c2ccc(Cl)cc2c(-c2ccccc2)c1-c1cn(Cc2ccccc2)nn1
> 10000 | CC(C)Cc1coc(-c2c(-c3ccccc3)c3cc(Cl)ccc3[nH]c2=O)n1
